From patent publication US20100003190A1, “Method for protecting renal tubular epithelial cells from radiocontrast nephropathy (RCN)” (Caritas St. Elizabeth's Medical Center of Boston, Inc., priority 2006, published 2010)

How the values were obtained:
HK-2 cells = test: MTT cell viability of HK-2 cells exposed to iodinated radiocontrast media, with or without rhEpo; format: cell-based, human
Method: (§1) HK-2, a proximal tubular cell line derived from normal human kidney, and LLC-PK1, a proximal renal tubular cell line of porcine origin, were obtained from the American Type Culture Collection ATCC (Manassas, Va.). HK-2 cells were grown in DMEM media (GIBCO) supplemented with 10% FBS (Hyclone), 15 mM HEPES, 2 mM L-glutamine, 50 U/ml penicillin, 50 μg/ml streptomycin (GIBCO), 0.1 μg/ml hydrocortisone, 5 μg/ml insulin, and 5 μg/ml apotransferrin (Sigma, St. Louis, Mo.). LLC-PK1 cells were maintained in medium 199 (GIBCO) supplemented with 10% FBS and penicillin-streptomycin. For the planned experiments, cells were seeded on 24-well plates at a density of 10^4 cells/cm^2 and cultured at 37° C. for 24 hours.
(§2) […] The cell viability was assessed by the mitochondrial activity in reducing MTT to form […] using a commercially available kit (Cell Proliferation Kit, Roche, Penzberg, Germany). In brief, cells were incubated at 37° C. for 4 hours in 200 μl of serum-free, phenol red free medium containing 20 μl of the MTT labeling reagent. 200 μl of solubilization solution were added to each well and cells were incubated at 37° C. for 24 hours. Aliquots of the incubation medium were transferred to a 96-well microplate and absorbance was measured at 570 nm with the reference of 690 nm using a microplate reader (MRX-II, Dynex).

caspase-3 = test: Caspase-3 activity (Caspase-Glo 3/7) in LLC-PK1 cells after radiocontrast media; format: cell-based, porcine
Method: Activity of caspase-3 was measured by the degradation of subtype-specific peptide substrate after exposure of LLC-PK1 cells to iohexol or iodixanol. In brief, cells were seeded in 96-well plates and treated with radiocontrast media as described. After removal of the media, 100 μl of the Caspase-Glo 3/7 reagent (Promega, Madison, Wis.) were added to each well, and cells were incubated at room temperature for 1 hour. Luminescence of each sample was measured on a luminometer (Lumat LB9507, EGG Berthold). As a control for specificity, DEVD-CHO (Calbiochem, EMD Biosciences), a caspase-3 inhibitor, was added to appropriate wells during incubation in a final concentration of 50 μM. In parallel, cells were stained in wells with crystal violet and the absorption at 600 nm was measured. For each well, the luminometer data were normalized to the level of crystal violet absorption.

[1] = MTT cell viability of HK-2 cells exposed to iodinated radiocontrast media, with or without rhEpo; format: cell-based, human; conditions: human, HK-2 cells (proximal tubular cell line), HK-2 cells, 100 mg iodine/mL contrast media, read-out: reduction of cell viability (MTT); for cytotoxicity at 1 h, 100 mg iodine/mL: 1-hour incubation; for cytotoxicity at 6 h, 100 mg iodine/mL: 6-hour incubation
Method: as §1, §2

LLC-PK1 cells = test: MTT cell viability of LLC-PK1 cells exposed to iodinated radiocontrast media, with or without rhEpo or darbepoetin; format: cell-based, porcine; conditions: LLC-PK1 cells (data not shown)
Method: as §1
Cells were exposed to iodinated radiocontrast media (100 mg iodine/ml) for 6 hours at 37° C., then washed twice with Dulbecco PBS solution, and incubated in serum-free culture medium for 24 hours at 37° C. The cell viability was assessed by the mitochondrial activity in reducing MTT to form […] using a commercially available kit (Cell Proliferation Kit, Roche, Penzberg, Germany). […] Aliquots of the incubation medium were transferred to a 96-well microplate and absorbance was measured at 570 nm with the reference of 690 nm using a microplate reader (MRX-II, Dynex).

[2] = patients with chronic renal failure; cited from earlier work
[3] = renal tubular epithelial cells, co-treatment, cell line not given

Molecule: rhEpo: Recombinant human erythropoietin, a widely available agent for the treatment of anemia; Epoetin alfa (EPOGEN) purchased from Amgen
- protective effect against cytotoxic effect of iodixanol (HK-2 cells; HK-2 cells, 200 U/ml rhEpo, iodixanol 100 mg iodine/ml): similarly protective
- protective effect against cellular toxicity of iohexol (HK-2 cells; HK-2 cells, 6 hours iohexol, three concentrations of rhEpo (0-400 U/ml), dose dependent): partially reversed
- concentration providing ceiling of protective effect (HK-2 cells; HK-2 cells, iohexol): 200 U/ml
- reduction of toxicity of iodixanol (MTT cell viability assay) (HK-2 cells; [3]): 20%
- reduction of toxicity of iohexol (MTT cell viability assay) (HK-2 cells; [3]): 20%
- effect on iohexol-induced caspase-3 activation (caspase-3; LLC-PK1 cells, co-treatment, rhEpo 200 U/ml): suppressed
- reduction of the induction of caspase-3 activation by iohexol (caspase-3; co-treatment of cells with rhEpo): 20%

Molecule: DEVD-CHO
- effect on radiocontrast-induced increase in caspase-3 activity (caspase-3; LLC-PK1 cells, iohexol or iodixanol, co-treatment with inhibitor 50 μM): abrogated

Molecule: CC(=O)N(CC(O)CN(C(C)=O)c1c(I)c(C(=O)NCC(O)CO)c(I)c(C(=O)NCC(O)CO)c1I)c1c(I)c(C(=O)NCC(O)CO)c(I)c(C(=O)NCC(O)CO)c1I (stereo not shown) [iodixanol]
- cytotoxicity at 1 h, 100 mg iodine/mL [1]: 33%
- cytotoxicity at 6 h, 100 mg iodine/mL [1]: 48%
- effect on caspase-3 activity (caspase-3; LLC-PK1 cells, 100 mg iodine/ml): induced an increase
- cell damage by radio-contrast agent (LLC-PK1 cells): marked cell damage

Molecule: C[C@H](O)C(=O)Nc1c(I)c(C(=O)NC(CO)CO)c(I)c(C(=O)NC(CO)CO)c1I [iopamidol]
- elimination half-life [2]: about 70 hours

Molecule: CC(=O)Nc1c(I)c(NC(C)=O)c(I)c(C(=O)O)c1I [diatrizoate, 3,5-Diacetamido-2,4,6-triiodobenzoic acid]
- cytotoxicity at 1 h, 100 mg iodine/mL [1]: 44%
- cytotoxicity at 6 h, 100 mg iodine/mL [1]: 99%
- toxic effects on renal tubular cells, comparison between contrast media (HK-2 cells; HK-2 cells, 6-hour incubation): more toxicity

Molecule: CC(=O)N(CC(O)CO)c1c(I)c(C(=O)NCC(O)CO)c(I)c(C(=O)NCC(O)CO)c1I (stereo not shown) [iohexol]
- cytotoxicity at 1 h, 100 mg iodine/mL [1]: 36%
- cytotoxicity at 6 h, 100 mg iodine/mL [1]: 60%
- cell damage by radio-contrast agent (LLC-PK1 cells): marked cell damage
